Measurements from PMC8962522, “Direct interaction of TrkA/CD44v3 is essential for NGF-promoted aggressiveness of breast cancer cells” (Journal of Experimental & Clinical Cancer Research : CR, 2022).
“Also recorded” adds a separate entry of the source.

How the values were obtained:
[1] = test system: RhoA in MDA-MB-231 cells; test: AB-FRET RhoA activation, MDA-MB-231 with RhoA biosensor; format: cell-based
Method: MDA-MB-231 native or KD cells were seeded (5000 cells/well; ovn, 37 °C) in a chambered coverglass system (Lab-Tek®) coated with a type I collagen matrix (100 μg/mL; Corning). These cells were transfected using the pBabe-puro-RhoA plasmid (0.15 μg; Addgene plasmid #12602) diluted in a buffer solution (JetOPTIMUS® buffer) and a transfection agent (TA; 10 min). The mixture was incorporated into the culture medium (4 h; 37 °C). Two to three hours before image acquisition, the cells expressing the RhoA biosensor were starved in fresh EMEM containing 0.1% FBS and no phenol red. […]
To further elucidate the mechanism of action of CD44v3 mimetic peptide 4, we studied its effect on the TrkA signaling pathway. […] Additionally, to confirm that this effect was independent of TrkA phosphorylation, we measured RhoA activation in MDA-MB-231 cells expressing dead TrkA kinase, which cannot be phosphorylated (Fig. 5D). […]
Fig. 5 CD44v3 is implicated in the phospho-TrkA-independent activation of RhoA GTPase. Phosphorylation of TrkA was measured in the presence of a scramble peptide or CD44v3 mimetic peptide 4 (P4) in the presence or absence of NGF (A). […] Phosphorylation of TrkA and downstream Akt in wild-type MDA-MB-231 and MDA-MB-231 cells expressing kinase-dead TrkA, as determined by western blotting (D). […]

[2] = test system: MDA-MB-231 xenograft tumors; test: MDA-MB-231 xenograft tumor growth in SCID mice; format: in vivo; conditions: injected near the tumor five times in a 3-day interval, from mean tumor volume 100 mm^3; versus PBS; 10 mice per group
Method: MDA-MB-231 cells (2 × 10^6) were subcutaneously injected into the flanks of six-week-old female SCID mice. One month after injection, the mice were randomized into 2 groups and injected near the tumor with CD44v3 mimetic peptide 4 (P4) or not (control) five times in a 3-day interval. Tumor volume was determined throughout the experiment by measuring the length (l) and width (w) and was calculated as π/6 × l × w × […]. Animals were sacrificed using isoflurane anesthesia when the tumors reached a similar size, and the organs were immediately removed and stored in liquid nitrogen.
To assess the role of TrkA/CD44v3 in vivo, SCID mice were injected with MDA-MB-231 cells to generate xenografts. Primary tumor development and metastasis (to the lung, brain and liver) were analyzed (Fig. 6). […] The development of primary tumors was measured throughout the experiments. […] We also assessed the metastatic burden. […] Micrometastases were detected at the end of the experiment by PCR of human microglobulin in xenograft mice treated with or without the CD44v3 mimetic peptide (Fig. 6E). […]
Fig. 6 CD44v3 mimetic peptide 4 blocks MDA-MB-231 tumor growth and metastasis. […] Body weight (B) and tumor volume (C) were measured following CD44v3 mimetic peptide administration (10 mice per group). […]

## IDDDEDFISST [Peptide 4, mimetic peptide 4 (…) corresponding to the C-terminal region of CD44v3]
[1]
  Mean donor peak (AB-FRET, RhoA activation), with NGF: 1.23
[1]; statement: NGF increased the signal with scramble peptide, not with peptide 4, listed as CD44v3 mimetic peptide 4
  NGF-induced FRET signal (RhoA activity), in words: NGF increased the FRET signal in the presence of the scramble peptide but not with CD44v3 mimetic peptide 4; also recorded: inhibits TrkA phosphorylation-independent RhoA activation induced by NGF
[2]
  tumor growth (in words): significantly inhibited the growth of MDA-MB-231 cells in xenograft tumors
